In patent US20240360178A1, “MACROCYCLIC IMMUNOMODULATORS” (Bristol-Myers Squibb Company, priority 2021, published 2024):
pIC50: −log10 of the molar value. Starred links: 1 amine or outer side, 2 acyl side, 3 side chain; linkers in the order of their positions; H or OH if unused. Positions of bridges follow the written chain, without caps; N, C: chain ends. Non-standard residues stand in square brackets, D forms with d. Residues, ends and D or L forms follow the SMILES beside them. *: point of attachment. Phe(4-COOH) = N[C@@H](Cc1ccc(C(=O)O)cc1)C(=O)O; Bip = N[C@@H](Cc1ccc(-c2ccccc2)cc1)C(=O)O; Phe(3-CN) = N#Cc1cccc(C[C@H](N)C(=O)O)c1; Phe(3-OMe) = COc1cccc(C[C@H](N)C(=O)O)c1; Phe(3-Me) = Cc1cccc(C[C@H](N)C(=O)O)c1; Val(3-OH) = CC(C)(O)[C@H](N)C(=O)O; NMeF = CN[C@@H](Cc1ccccc1)C(=O)O; X2 = O=C([C@H]1COCCN1[*:1])[*:2]; 4Pal = N[C@@H](Cc1ccncc1)C(=O)O; dTic = O=C(O)[C@H]1Cc2ccccc2CN1; Cha = N[C@@H](CC1CCCCC1)C(=O)O; Carboxymethyl = O=C(O)C*; NMeA = CN[C@@H](C)C(=O)O; Orn = NCCC[C@H](N)C(=O)O; Dab = NCC[C@H](N)C(=O)O; Sar = CNCC(=O)O

Molecular target: T1, human PD-1 (Jurkat-PD-1 cells) / PE-labeled human PD-L1-Ig (Homo sapiens, UniProt Q15116)
T1 construct: expressed in transfected cells; host or cells: Jurkat cell line over-expressing human PD-1
Test: Jurkat-PD-1 Cell Binding High-Content Screening Assay (CBA); Jurkat hPD1-PDL1 assay
Settings: Jurkat cell line over-expressing human PD-1; PE-labeled PD-L1-Ig 20 nM final; compound incubated 2 hours at 37° C.; read-out: Jurkat HPD1-PDL1 IC50
Summary of the method: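 Read-out is high-content imaging of PE fluorescence on PD-1-over-expressing Jurkat cells. Cells are first exposed to compound for 2 hours at 37° C in serum-containing DMEM, after which PE-labeled PD-L1-Ig is added at 20 nM final.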

T1 sequence (Q15116 25-288): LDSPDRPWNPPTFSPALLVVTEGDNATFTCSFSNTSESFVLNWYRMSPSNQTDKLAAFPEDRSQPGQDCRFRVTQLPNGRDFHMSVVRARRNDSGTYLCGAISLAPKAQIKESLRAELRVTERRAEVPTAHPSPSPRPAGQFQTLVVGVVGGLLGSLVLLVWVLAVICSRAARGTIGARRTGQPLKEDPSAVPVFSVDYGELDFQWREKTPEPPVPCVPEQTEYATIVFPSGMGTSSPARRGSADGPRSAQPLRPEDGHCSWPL

SMILES	pIC50
CC(C)C[C@@H]1NC(=O)[C@H](CCCNC(=N)N)NC(=O)[C@H](Cc2ccccc2)N(C)C(=O)[C@H](C)N(C)C(=O)[C@H](CCCNC(=N)N)NC(=O)[C@H](Cc2ccc(-c3ccccc3)cc2)NC(=O)[C@H](C(C)C)NC(=O)[C@H](Cc2c[nH]c3ccccc23)NC(=O)[C@H](CC(=O)O)NC(=O)[C@H](Cc2ccc(O)cc2)NC(=O)[C@H](Cc2cnc[nH]2)NC(=O)CSC[C@@H](C(=O)NCC(N)=O)NC(=O)[C@H](CO)NC(=O)[C@H](C(C)C)NC1=O [Example 1058] ({CH2CO}-HYDWV[Bip]R[NMeA][NMeF]RLVSCG-NH2; thioether N-14)	6.89
CC(C)C[C@@H]1NC(=O)[C@H](CCCNC(=N)N)NC(=O)[C@H](Cc2ccccc2)N(C)C(=O)[C@H](C)N(C)C(=O)[C@H](CCCNC(=N)N)NC(=O)[C@H](Cc2ccc(-c3ccccc3)cc2)NC(=O)[C@H](C(C)C)NC(=O)[C@H](Cc2c[nH]c3ccccc23)NC(=O)[C@H](CC(=O)O)NC(=O)[C@H](Cc2ccc(O)cc2)NC(=O)[C@H](Cc2cnc[nH]2)NC(=O)CSC[C@@H](C(=O)NCC(N)=O)NC(=O)[C@H]([C@@H](C)O)NC(=O)[C@H](C(C)C)NC1=O [Example 1317] ({CH2CO}-HYDWV[Bip]R[NMeA][NMeF]RLVTCG-NH2; thioether N-14)	7.22
CC(C)C[C@@H]1NC(=O)[C@H](Cc2c[nH]c3ccccc23)NC(=O)[C@H](CC(=O)O)NC(=O)[C@H](Cc2ccc(O)cc2)NC(=O)[C@H](Cc2ccccc2)NC(=O)CSC[C@@H](C(=O)N[C@@H](C)C(N)=O)NC(=O)[C@H](CO)NC(=O)[C@H](C(C)C)NC(=O)[C@H](CC(C)C)NC(=O)[C@H](CC(N)=O)NC(=O)[C@H]2COCCN2C(=O)[C@H](C)N(C)C(=O)[C@H](C(C)C)NC(=O)[C@H](Cc2ccc(-c3ccccc3)cc2)NC1=O [Example 1044] ({CH2CO}-FYDWL[Bip]V[NMeA][X2]NLVSCA-NH2; thioether N-14)	7.10
CC(C)C[C@@H]1NC(=O)[C@H](CCN)NC(=O)[C@H](Cc2ccccc2)N(C)C(=O)[C@H](C)N(C)C(=O)[C@H](CCCNC(=N)N)NC(=O)[C@H](Cc2ccc(-c3ccccc3)cc2)NC(=O)[C@H](C(C)C)NC(=O)[C@H](Cc2c[nH]c3ccccc23)NC(=O)[C@H](CC(=O)O)NC(=O)[C@H](Cc2ccc(O)cc2)NC(=O)[C@H](CC(N)=O)NC(=O)CSC[C@@H](C(=O)N[C@@H](C)C(N)=O)NC(=O)[C@H]([C@@H](C)O)NC(=O)[C@H](C(C)C)NC1=O [Example 1320] ({CH2CO}-NYDWV[Bip]R[NMeA][NMeF][Dab]LVTCA-NH2; thioether N-14)	6.82
CC(C)C[C@@H]1NC(=O)[C@H](Cc2c[nH]c3ccccc23)NC(=O)[C@H](CC(=O)O)NC(=O)[C@H](Cc2ccc(O)cc2)NC(=O)[C@H](Cc2ccccc2)NC(=O)CSC[C@@H](C(=O)N[C@@H](C)C(N)=O)NC(=O)[C@H](CO)NC(=O)[C@H](C(C)C)NC(=O)[C@H](CC(C)C)NC(=O)[C@H](CCC(=O)O)NC(=O)CN(C)C(=O)[C@H](C)N(C)C(=O)[C@H](C(C)C)NC(=O)[C@H](Cc2ccc(-c3ccccc3)cc2)NC1=O [Example 1108] ({CH2CO}-FYDWL[Bip]V[NMeA][Sar]ELVSCA-NH2; thioether N-14)	6.47
COc1cccc(C[C@@H]2NC(=O)[C@H](CC(=O)O)NC(=O)[C@H](Cc3cccc(C#N)c3)NC(=O)[C@H](Cc3ccncc3)NC(=O)CSC[C@@H](C(=O)N[C@@H](C)C(N)=O)NC(=O)[C@H](CO)NC(=O)[C@H](C(C)C)NC(=O)[C@H](CC(C)C)NC(=O)[C@H](CC(N)=O)NC(=O)[C@H]3CCCN3C(=O)[C@H](C)N(C)C(=O)[C@H](C(C)C)NC(=O)[C@H](Cc3ccc(-c4ccccc4)cc3)NC(=O)[C@H](CC(C)C)NC2=O)c1 [Example 1388] ({CH2CO}-[4Pal][Phe(3-CN)]D[Phe(3-OMe)]L[Bip]V[NMeA][dP]NLVSCA-NH2; thioether N-14)	7.70
CC(C)C[C@@H]1NC(=O)[C@H](Cc2c[nH]c3ccccc23)NC(=O)[C@H](CC(=O)O)NC(=O)[C@H](Cc2ccc(O)cc2)NC(=O)[C@H](CC(N)=O)NC(=O)CSC[C@@H](C(=O)NCC(N)=O)NC(=O)[C@H](CO)NC(=O)[C@H](C(C)C)NC(=O)[C@H](CC(C)C)NC(=O)[C@H](CC(N)=O)NC(=O)CN(C)C(=O)[C@H](C)N(C)C(=O)[C@H](C(C)C)NC(=O)[C@H](Cc2ccc(-c3ccccc3)cc2)NC1=O [Example 1140] ({CH2CO}-NYDWL[Bip]V[NMeA][Sar]NLVSCG-NH2; thioether N-14)	6.22
CC(C)C[C@@H]1NC(=O)[C@H](CCCN)NC(=O)[C@H]2Cc3ccccc3CN2C(=O)[C@H](C)N(C)C(=O)[C@H](CCCNC(=N)N)NC(=O)[C@H](Cc2ccc(-c3ccccc3)cc2)NC(=O)[C@H](C(C)C)NC(=O)[C@H](Cc2c[nH]c3ccccc23)NC(=O)[C@H](CC(=O)O)NC(=O)[C@H](Cc2ccc(O)cc2)NC(=O)[C@H](CC(N)=O)NC(=O)CSC[C@@H](C(=O)N[C@@H](C)C(N)=O)NC(=O)[C@H]([C@@H](C)O)NC(=O)[C@H](C(C)C)NC1=O [Example 1356] ({CH2CO}-NYDWV[Bip]R[NMeA][dTic][Orn]LVTCA-NH2; thioether N-14)	6.57
Cc1cccc(C[C@@H]2NC(=O)[C@H](CC(=O)O)NC(=O)[C@H](Cc3ccc(OCC(=O)O)cc3)NC(=O)[C@H](Cc3ccncc3)NC(=O)CSC[C@@H](C(=O)N[C@@H](CCN)C(N)=O)NC(=O)[C@H](CO)NC(=O)[C@H](C(C)(C)O)NC(=O)[C@H](CC3CCCCC3)NC(=O)[C@H](CCN)NC(=O)[C@H]3CCCN3C(=O)[C@H](C)N(C)C(=O)[C@H](Cc3ccc(OCC(=O)O)cc3)NC(=O)[C@H](Cc3ccc(-c4ccccc4)cc3)NC(=O)[C@H](Cc3ccc(C(=O)O)cc3)NC2=O)c1 [Example 1178] ({CH2CO}-[4Pal]Y(Carboxymethyl)D[Phe(3-Me)][Phe(4-COOH)][Bip]Y(Carboxymethyl)[NMeA][dP][Dab][Cha][Val(3-OH)]SC[Dab]-NH2; thioether N-14)	7.15
CC(C)C[C@@H]1NC(=O)[C@H](Cc2c[nH]c3ccccc23)NC(=O)[C@H](CC(=O)O)NC(=O)[C@H](Cc2ccc(O)cc2)NC(=O)[C@H](Cc2ccccc2)NC(=O)CSC[C@@H](C(=O)N[C@@H](C)C(N)=O)NC(=O)[C@H]([C@@H](C)O)NC(=O)[C@H](CCCCN)NC(=O)[C@H](CC(C)C)NC(=O)[C@H](CC(N)=O)NC(=O)[C@H]2CCCN2C(=O)[C@H](C)N(C)C(=O)[C@H](C(C)C)NC(=O)[C@H](Cc2ccc(-c3ccccc3)cc2)NC1=O [Example 1089] ({CH2CO}-FYDWL[Bip]V[NMeA][dP]NLKTCA-NH2; thioether N-14)	6.60
CC(C)C[C@@H]1NC(=O)[C@H](Cc2c[nH]c3ccccc23)NC(=O)[C@H](CC(=O)O)NC(=O)[C@H](Cc2ccc(C(=O)O)cc2)NC(=O)[C@H](Cc2cnc[nH]2)NC(=O)CSC[C@@H](C(=O)N[C@@H](C)C(N)=O)NC(=O)[C@H](CO)NC(=O)[C@H](C(C)C)NC(=O)[C@H](CC(C)C)NC(=O)[C@H](CC(N)=O)NC(=O)[C@H]2CCCN2C(=O)[C@H](C)N(C)C(=O)[C@H](C(C)C)NC(=O)[C@H](Cc2ccc(-c3ccccc3)cc2)NC1=O [Example 1046] ({CH2CO}-H[Phe(4-COOH)]DWL[Bip]V[NMeA][dP]NLVSCA-NH2; thioether N-14)	7.10
